{"source": "patent US20120295844A1", "about": "“USE OF APROTININ FOR TREATING PARASITIC INFECTIONS AND PROGNOSING BOVINE TRYPANOTOLERANCE” (priority 2010, published 2012)", "key": {"[1]": {"test_system": "\"trypsin-like\" (serine protease) in Leishmania donovani infantum (Ldi) lysates", "assay": "BAPNA degradation by Leishmania donovani infantum (Ldi) lysates", "type": "biochemical", "conditions": "BPTI 625 μg; lysate alone 2.893", "experimental": "(§1) The parasites were placed in rodent culture and purified on a DEAE cellulose column. The parasites were then counted, and lysed by means of 4 successive 1-minute passages in liquid nitrogen and in a water-bath at 37° C. The tests were conducted on three independent procedures in triplicate using […]. The method used for detecting “trypsin-like” (serine protease) consists of measuring, as a function of time, the initial degradation rate of a homogeneous substrate, N-benzoyl-ariginine-p-nitroaniline (BAPNA), under the effect of “trypsin-like” found in lysates in the presence of absence of BPTI. The appearance of the degradation product, p-nitroalinine (p-Na), which is yellow in colour, is measured by means of spectrophotometry at 405 nm. The enzyme activity calculation is performed according to the Beer-Lambert law.\n(§2) Leishmania (Ldi and Ldd8) were placed in culture in RMPI supplemented with 10% FCS, 1% penicillin/streptomycin and 1% Ultraglutamine and placed in an incubator) 37° C./5% CO2 for one week. The leishmania are counted and lysed according to the protocol defined for trypanosome lysis. The method for detecting and the method for calculating the enzyme activity were identical to those used for trypanosomes. The tests using Ldi and Ldd8 were conducted on three independent procedures in triplicate using […]."}, "[2]": {"test_system": "NO production by bovine macrophages", "assay": "NO production inhibition by bovine macrophages derived from circulating monocytes", "type": "cell-based", "conditions": "LPS + bovine IFNg", "experimental": "(§3) Two different vials of the J774.2 line were used at the 8th and 9th passages. The cells from these vials were placed in culture in parallel, and the tests were triplicated. The cells were first stimulated with Lipopolysaccharide (LPS, InvivoGen) at a concentration of 100 ng/ml and with mouse interferon gamma (IDNγ, AbD serotex) at a final concentration of 10 ng/ml and incubated in the absence (control) or in the presence of various concentrations of BPTI (range of 12.5 to 100 μM) for 15 hours at 37° C./5% CO2 in a complete medium containing DMEM glutamax (Gibco) supplemented with 10% foetal calf serum (FCS) and 1% penicillin/streptamycin. The quantity of NO produced was determined by means of a colorimetric assay according to the Griess principle (Pinelli et al., Vet. Parasitol., 2000, 92: 181-189). For each BPTI concentration, NO production inhibition percentage is calculated according to the following formula: […]\nBovine monocytes were isolated from circulating monocytes. Two independent tests were performed and each of the tests was triplicated. The monocytes were stimulated with LPS at a concentration of 250 ng/ml and bovine IFNg at a final concentration of 10 ng/ml. The cells were then incubated in the absence ([…]) for 20 hours (test 1) and 24 hours (test 2) at 37° C./5% CO2 in IMDM complete medium containing IMDM supplemented with L-glutamine at […] final, gentamicin at 50 μg/ml final, 10% FCS and 5×10^−5 M b-mercaptoethanol."}, "[3]": {"test_system": "\"trypsin-like\" (serine protease) in Trypanosoma congolense (Tc. IL1180) lysates", "assay": "BAPNA degradation by Trypanosoma congolense (Tc. IL1180) lysates", "type": "biochemical", "conditions": "BPTI 3.125 mg/ml or 481.25 μM or 625 μg/well, BAPNA 0.315 mM", "experimental": "as §1"}, "[4]": {"test_system": "\"trypsin-like\" (serine protease) in Leishmania donovani donovani (Ldd8) lysates", "assay": "BAPNA degradation by Leishmania donovani donovani (Ldd8) lysates", "type": "biochemical", "conditions": "BPTI 625 μg; lysate alone 1.767", "experimental": "as §1, §2"}, "[5]": {"test_system": "Leishmania donovani infantum (Ldi)", "assay": "Viability and growth of Leishmania donovani infantum (Ldi) cultured in vitro (FACS)", "type": "cell-based", "conditions": "BPTI 50, 100, 200 μM", "experimental": "The growth and viability of Leismania donovani infantum parasites were measured by FACS at 4, 12, 24, 48, 72, 144 and 168 hours of culture after addition of BPTI at concentrations of 50, 100 and 200 μM. The results are presented in graphs A and B in FIG. 10.\nThe effect of BPTI was tested for each time value with a non-parametric test (Kruskal-Wallis test)."}, "[6]": {"test_system": "NO production by RAW 264.7 macrophage line cells", "assay": "NO production inhibition by RAW 264.7 macrophage line (Griess assay)", "type": "cell-based, mouse", "conditions": "LPS + IFNγ stimulated RAW 264.7 cells", "experimental": "as §3\nTwo different vials of the RAW 264.7 line were used at the 10th and 11th passages. The cells from these vials were placed in culture in parallel, and the tests were triplicated and performed as described above."}, "[7]": {"test_system": "NO production by J774.2 macrophage line cells", "assay": "NO production inhibition by J774.2 macrophage line (Griess assay)", "type": "cell-based, mouse", "conditions": "LPS + IFNγ stimulated J774.2 cells, 15 hours", "experimental": "as §3"}, "[8]": {"test_system": "Trypanosoma congolense IL1180", "assay": "Viability of Trypanosoma congolense IL1180 cultured in vitro (FACS, microscopy)", "type": "cell-based", "conditions": "for mortality induced by BPTI (natural mortality subtracted): 48 hours", "experimental": "Before adding BPTI and for measurement times: 1.5 hours, 17 hours and 24 hours, the parasites (Trypanosoma congolense IL1180) are clearly visible; their form is as expected (fusiform), and they are mobile. However, the mortality becomes increasingly visible over time. The impact of BPTI on morphology is perceptible 17 hours (and thereafter) after adding BPTI to the culture. […] In order to analyze the effect of BPTI on parasite viability, flow cytometry measurements were made at different times (1.5 hours, 17 hours, 24 hours and 48 hours after adding 100 μM or 200 μM of BPTI for parasite concentrations of 5×10^6 parasites/ml and 10×10^6 parasites/ml). The results obtained are represented in graphs A and B in FIG. 7. There is a “natural” mortality of Trypanosoma congolense in vitro, due to the difficulty maintaining sanguicolous forms of Trypanosoma congolense in liquid culture. This mortality increases over time and reaches values of 49.1% and 47.1% under conditions using 5.10^6 parasites/ml and 10.10^6 parasites/ml, respectively. However, a trypanocidal action of BPTI may be observed on trypanosome cultures, a slight dose-dependent effect of BPTI on parasite viability may be recorded. The effect of BPTI is extremely significant and appears to be also time-dependent. […] The mortality induced by BPTI on a population of 5×10^6 trypanosomes (10×10^6 parasites/ml) under the same conditions is 49.6% and 48.8%, respectively (see graphs A and B in FIG. 8)."}}, "data": [{"substance": "aprotinin [BPTI]", "values": [{"measurement": "lysate enzyme activity with BPTI", "setting": "[1]", "result": 1.555}, {"measurement": "mean inhibition of NO production", "setting": "[2]; Test 1, 20 hours, BPTI 12.5 μM", "result": 8.4, "unit": "%"}, {"measurement": "mean inhibition of NO production", "setting": "[2]; Test 1, 20 hours, BPTI 25 μM", "result": 14.2, "unit": "%"}, {"measurement": "mean inhibition of NO production", "setting": "[2]; Test 1, 20 hours, BPTI 50 μM", "result": 32.6, "unit": "%"}, {"measurement": "mean inhibition of NO production", "setting": "[2]; Test 1, 20 hours, BPTI 100 μM", "result": 70.5, "unit": "%"}, {"measurement": "mean inhibition of NO production", "setting": "[2]; Test 2, 24 hours, BPTI 6.25 μM", "result": 12, "unit": "%"}, {"measurement": "mean inhibition of NO production", "setting": "[2]; Test 2, 24 hours, BPTI 12.5 μM", "result": 25.9, "unit": "%"}, {"measurement": "mean inhibition of NO production", "setting": "[2]; Test 2, 24 hours, BPTI 25 μM", "result": 62.5, "unit": "%"}, {"measurement": "mean inhibition of NO production", "setting": "[2]; Test 2, 24 hours, BPTI 50 μM", "result": 70, "unit": "%"}, {"measurement": "mean inhibition of NO production", "setting": "[2]; Test 2, 24 hours, BPTI 100 μM", "result": 60.2, "unit": "%"}, {"measurement": "mean inhibition of lysate enzyme activity", "setting": "[3]", "result": 44.6, "unit": "%"}, {"measurement": "lysate enzyme activity in the presence of BPTI", "setting": "[3]; lysate alone 1.893", "result": "1.048 (Standard deviation 0.073)"}, {"measurement": "lysate enzyme activity with BPTI", "setting": "[4]", "result": 1.0893}, {"measurement": "effect on the viability of leishmania (Kruskal-Wallis test)", "setting": "[5]; 72 hours, P-value=0.05", "result": "at the limit of significance"}, {"measurement": "effect on the viability of leishmania (Kruskal-Wallis test)", "setting": "[5]; 144 hours, P-value=0.05", "result": "significant effect"}, {"measurement": "effect on the number of leishmania (growth, Kruskal-Wallis test)", "setting": "[5]; 168 hours only, P-value=0.03", "result": "significant effect"}, {"measurement": "effect on the viability of leishmania (Kruskal-Wallis test)", "setting": "[5]; 168 hours, P-value=0.03", "result": "significant effect"}, {"measurement": "effect on the viability of leishmania (Kruskal-Wallis test)", "setting": "[5]; other observation times (4, 12, 24, 48 hours)", "result": "not significant"}, {"measurement": "NO production inhibition", "setting": "[6]; BPTI 12.5 μM", "result": "NO inhibition was observed"}, {"measurement": "NO production inhibition", "setting": "[6]; BPTI 25 μM", "result": 0.2, "unit": "%"}, {"measurement": "NO production inhibition", "setting": "[6]; BPTI 50 μM", "result": 16.1, "unit": "%"}, {"measurement": "NO production inhibition", "setting": "[6]; BPTI 100 μM", "result": 47.6, "unit": "%"}, {"measurement": "NO production inhibition", "setting": "[7]; BPTI 12.5 μM", "result": 1.7, "unit": "%"}, {"measurement": "NO production inhibition", "setting": "[7]; BPTI 25 μM", "result": 16.2, "unit": "%"}, {"measurement": "NO production inhibition", "setting": "[7]; BPTI 50 μM", "result": 30.1, "unit": "%"}, {"measurement": "NO production inhibition", "setting": "[7]; BPTI 100 μM", "result": 59.5, "unit": "%"}, {"measurement": "effect on parasite morphology (microscopic observation)", "setting": "[8]; 17 hours and thereafter after adding BPTI to the culture", "result": "Spherical forms are observed"}, {"measurement": "mortality induced by BPTI (natural mortality subtracted)", "setting": "[8]; BPTI 100 μM, 2.5×10^6 trypanosomes (5×10^6 parasites/ml)", "result": 46, "unit": "%"}, {"measurement": "mortality induced by BPTI (natural mortality subtracted)", "setting": "[8]; BPTI 100 μM, 5×10^6 trypanosomes (10×10^6 parasites/ml)", "result": 49.6, "unit": "%"}, {"measurement": "mortality induced by BPTI (natural mortality subtracted)", "setting": "[8]; BPTI 200 μM, 2.5×10^6 trypanosomes (5×10^6 parasites/ml)", "result": 47.4, "unit": "%"}, {"measurement": "mortality induced by BPTI (natural mortality subtracted)", "setting": "[8]; BPTI 200 μM, 5×10^6 trypanosomes (10×10^6 parasites/ml)", "result": 48.8, "unit": "%"}, {"measurement": "increase of in vitro parasite mortality", "setting": "[8]; summary statement referring to Example 2", "result": 50, "unit": "%"}]}]}
